Usually EC50 stands for the midpoint of the concentration-response curve.

20 compounds from US20230295096A1, “PYRAZOLE CARBOXAMIDE COMPOUNDS FOR TREATMENT OF HBV” (ASSEMBLY BIOSCIENCES, INC., priority 2020, published 2023) can be followed below.

The test deals with HBV. Briefly: Viral load production from HepAD38 cells, qPCR of the HBV core sequence in supernatant. The format is cell-based. The following applies: Hepatitis B virus, HePAD38, 120 h, HepAD38 cells, 5 days, HBV DNA in supernatant by qPCR; Table 1 ranges; read-out: Activity (viral load lowering EC50). The essentials:
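EC50 and CC50 come from four-parameter logistic fits of supernatant HBV core DNA (TaqMan qPCR, DNA standards, compared with DMSO wells) and of CellTiter-Glo luminescence.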

Bounds are passed on as bounds.

Turning to `Cn1nc(C2CC3CC(CNC(=O)C4CCNCC4)CC3C2)c(C(=O)Nc2ccc(F)c(Cl)c2)c1N` (centres unmarked) [Example 75, N-((5-(5-Amino-4-((3-chloro-4-fluorophenyl)carbamoyl)-1-methyl-1H-pyrazol-3-yl)octahydropentalen-2-yl)methyl)piperidine-4-carboxamide], the EC50 lay within 10 to 50 nM.
Next, `Cn1nc(C2CC3CC(CNC(=O)C4CCCCC4)CC3C2)c(C(=O)Nc2ccc(F)c(Cl)c2)c1N` (centres unmarked) [Example 76, 5-Amino-N-(3-chloro-4-fluorophenyl)-3-(5-(cyclohexanecarboxamidomethyl)octahydropentalen-2-yl)-1-methyl-1H-pyrazole-4-carboxamide]: 10 to 50 nM.
`COC(=O)C12CCC(C(=O)NCC3CC4CC(c5nn(C)c(N)c5C(=O)Nc5ccc(F)c(Cl)c5)CC4C3)(CC1)CC2` (centres unmarked) [Example 77, Methyl 4-(((5-(5-amino-4-((3-chloro-4-fluorophenyl)carbamoyl)-1-methyl-1H-pyrazol-3-yl)octahydropentalen-2-yl)methyl)carbamoyl)bicyclo[2.2.2]octane-1-carboxylate]: the concentration giving a half-maximal response (EC50) fell in the range of 50 to 500 nM.
As to `Cn1nc(C2CC3CC(CNC(=O)C45CCN(CC4)CC5)CC3C2)c(C(=O)Nc2ccc(F)c(Cl)c2)c1N` (centres unmarked) [Example 78, N-((5-(5-Amino-4-((3-chloro-4-fluorophenyl)carbamoyl)-1-methyl-1H-pyrazol-3-yl)octahydropentalen-2-yl)methyl)quinuclidine-4-carboxamide], the concentration giving a half-maximal response (EC50) lay in the range of 50 to 500 nM.
In the case of `Cn1nc(C2CC3CC(CNC(=O)C(C)(C)C4CCNCC4)CC3C2)c(C(=O)Nc2ccc(F)c(Cl)c2)c1N` (centres unmarked) [Example 79, 5-Amino-N-(3-chloro-4-fluorophenyl)-1-methyl-3-(5-((2-methyl-2-(piperidin-4-yl)propanamido)methyl)octahydropentalen-2-yl)-1H-pyrazole-4-carboxamide] it was 50 to 500 nM; in that of `Cn1nc(C2CC3CC(CNC(=O)C4CCNC(=O)C4)CC3C2)c(C(=O)Nc2ccc(F)c(Cl)c2)c1N` (centres unmarked) [Example 80, N-((5-(5-Amino-4-((3-chloro-4-fluorophenyl)carbamoyl)-1-methyl-1H-pyrazol-3-yl)octahydropentalen-2-yl)methyl)-2-oxopiperidine-4-carboxamide], 50 to 500 nM.
Regarding `Cn1nc(C2CC3CC(CNC(=O)CCCCCN)CC3C2)c(C(=O)Nc2ccc(F)c(Cl)c2)c1N` (centres unmarked) [Example 81, 5-Amino-3-(5-((6-aminohexanamido)methyl)octahydropentalen-2-yl)-N-(3-chloro-4-fluorophenyl)-1-methyl-1H-pyrazole-4-carboxamide], the 50% effective concentration (EC50) was in the range of 50 to 500 nM.
For the compound `Cn1nc(C2CC3CC(CNC(=O)COCCOCCN)CC3C2)c(C(=O)Nc2ccc(F)c(Cl)c2)c1N` (centres unmarked) [Example 82, 5-Amino-3-(5-((2-(2-(2-aminoethoxy)ethoxy)acetamido)methyl)octahydropentalen-2-yl)-N-(3-chloro-4-fluorophenyl)-1-methyl-1H-pyrazole-4-carboxamide], the concentration giving a half-maximal response (EC50) is 50 to 500 nM.
In the case of `CNS(=O)(=O)NCC1CC2CC(c3nn(C)c(N)c3C(=O)Nc3ccc(F)c(Cl)c3)CC2C1` (centres unmarked) [Example 83, 5-Amino-N-(3-chloro-4-fluorophenyl)-1-methyl-3-(5-(((N-methylsulfamoyl)amino)methyl)octahydropentalen-2-yl)-1H-pyrazole-4-carboxamide] it was less than 10 nM.
In the case of `Cn1nc(C2CC3CC(CNS(=O)(=O)c4ccc(OC(F)(F)F)cc4)CC3C2)c(C(=O)Nc2ccc(F)c(Cl)c2)c1N` (centres unmarked) [Example 84, 5-Amino-N-(3-chloro-4-fluorophenyl)-1-methyl-3-(5-(((4-(trifluoromethoxy)phenyl)sulfonamido)methyl)octahydropentalen-2-yl)-1H-pyrazole-4-carboxamide] it was 50 to 500 nM; in that of `Cn1nc(C2CC3CC(CNS(=O)(=O)c4ccc(F)cc4F)CC3C2)c(C(=O)Nc2ccc(F)c(Cl)c2)c1N` (centres unmarked) [Example 85, 5-Amino-N-(3-chloro-4-fluorophenyl)-3-(5-(((2,4-difluorophenyl)sulfonamido)methyl)octahydropentalen-2-yl)-1-methyl-1H-pyrazole-4-carboxamide], less than 10 nM.
Next, `Cn1nc(C2CC3CC(CNS(=O)(=O)c4ccc(Cl)nc4)CC3C2)c(C(=O)Nc2ccc(F)c(Cl)c2)c1N` (centres unmarked) [Example 86, 5-Amino-N-(3-chloro-4-fluorophenyl)-3-(5-(((6-chloropyridine)-3-sulfonamido)methyl)octahydropentalen-2-yl)-1-methyl-1H-pyrazole-4-carboxamide]: less than 10 nM.
Take `CCS(=O)(=O)NCC1CC2CC(c3nn(C)c(N)c3C(=O)Nc3ccc(F)c(Cl)c3)CC2C1` (centres unmarked) [Example 87, 5-Amino-N-(3-chloro-4-fluorophenyl)-3-(5-(ethylsulfonamidomethyl)octahydropentalen-2-yl)-1-methyl-1H-pyrazole-4-carboxamide]: the 50% effective concentration (EC50) is less than 10 nM.
Next, `Cn1nc(C2CC3CC(CNS(C)(=O)=O)CC3C2)c(C(=O)Nc2ccc(F)c(Cl)c2)c1N` (centres unmarked) [Example 88, 5-Amino-N-(3-chloro-4-fluorophenyl)-1-methyl-3-(5-(methylsulfonamidomethyl)octahydropentalen-2-yl)-1H-pyrazole-4-carboxamide]: less than 10 nM; `CCCS(=O)(=O)NCC1CC2CC(c3nn(C)c(N)c3C(=O)Nc3ccc(F)c(Cl)c3)CC2C1` (centres unmarked) [Example 89, 5-Amino-N-(3-chloro-4-fluorophenyl)-1-methyl-3-(5-(propylsulfonamidomethyl)octahydropentalen-2-yl)-1H-pyrazole-4-carboxamide]: less than 10 nM.
In the case of `CC(C)S(=O)(=O)NCC1CC2CC(c3nn(C)c(N)c3C(=O)Nc3ccc(F)c(Cl)c3)CC2C1` (centres unmarked) [Example 90, 5-Amino-N-(3-chloro-4-fluorophenyl)-1-methyl-3-(5-(((1-methylethyl)sulfonamido)methyl)octahydropentalen-2-yl)-1H-pyrazole-4-carboxamide] it was less than 10 nM; in that of `Cn1nc(C2CC3CC(CNS(=O)(=O)C4CCC4)CC3C2)c(C(=O)Nc2ccc(F)c(Cl)c2)c1N` (centres unmarked) [Example 91, 5-Amino-N-(3-chloro-4-fluorophenyl)-3-(5-(cyclobutanesulfonamidomethyl)octahydropentalen-2-yl)-1-methyl-1H-pyrazole-4-carboxamide], 10 to 50 nM; in that of `Cn1nc(C2CC3CC(CNS(=O)(=O)C4CCCC4)CC3C2)c(C(=O)Nc2ccc(F)c(Cl)c2)c1N` (centres unmarked) [Example 92, 5-Amino-N-(3-chloro-4-fluorophenyl)-3-(5-(cyclopentanesulfonamidomethyl)octahydropentalen-2-yl)-1-methyl-1H-pyrazole-4-carboxamide], 10 to 50 nM.
In the case of `Cn1nc(C2CC3CC(CNS(=O)(=O)C(F)(F)F)CC3C2)c(C(=O)Nc2ccc(F)c(Cl)c2)c1N` (centres unmarked) [Example 93, 5-Amino-N-(3-chloro-4-fluorophenyl)-1-methyl-3-(5-(((trifluoromethyl)sulfonamido)methyl)octahydropentalen-2-yl)-1H-pyrazole-4-carboxamide], the EC50 is 10 to 50 nM.
In the case of `Cn1nc(C2CC3CC(CNS(=O)(=O)C4CC4)CC3C2)c(C(=O)Nc2ccc(F)c(Cl)c2)c1N` (centres unmarked) [Example 94, 5-Amino-N-(3-chloro-4-fluorophenyl)-3-(5-(cyclopropanesulfonamidomethyl)octahydropentalen-2-yl)-1-methyl-1H-pyrazole-4-carboxamide] it was less than 10 nM.
